Laboratory results from US6783949B1, “Processes for determining whether a test substance contains lipases or lipase inhibitors” (Aventis Pharma Deutschland GmbH, priority 1999, dated 2004).

Target: T1, HSL (Rattus norvegicus, UniProt P15304)
T1 construct: The partially purified HSL can be stored at −70° C. for 4 to 6 weeks; from tissue; host or cells: rat epididymal fat cells (male Wistar rats)
T1 sequence (P15304 1-768 isoform P15304-2): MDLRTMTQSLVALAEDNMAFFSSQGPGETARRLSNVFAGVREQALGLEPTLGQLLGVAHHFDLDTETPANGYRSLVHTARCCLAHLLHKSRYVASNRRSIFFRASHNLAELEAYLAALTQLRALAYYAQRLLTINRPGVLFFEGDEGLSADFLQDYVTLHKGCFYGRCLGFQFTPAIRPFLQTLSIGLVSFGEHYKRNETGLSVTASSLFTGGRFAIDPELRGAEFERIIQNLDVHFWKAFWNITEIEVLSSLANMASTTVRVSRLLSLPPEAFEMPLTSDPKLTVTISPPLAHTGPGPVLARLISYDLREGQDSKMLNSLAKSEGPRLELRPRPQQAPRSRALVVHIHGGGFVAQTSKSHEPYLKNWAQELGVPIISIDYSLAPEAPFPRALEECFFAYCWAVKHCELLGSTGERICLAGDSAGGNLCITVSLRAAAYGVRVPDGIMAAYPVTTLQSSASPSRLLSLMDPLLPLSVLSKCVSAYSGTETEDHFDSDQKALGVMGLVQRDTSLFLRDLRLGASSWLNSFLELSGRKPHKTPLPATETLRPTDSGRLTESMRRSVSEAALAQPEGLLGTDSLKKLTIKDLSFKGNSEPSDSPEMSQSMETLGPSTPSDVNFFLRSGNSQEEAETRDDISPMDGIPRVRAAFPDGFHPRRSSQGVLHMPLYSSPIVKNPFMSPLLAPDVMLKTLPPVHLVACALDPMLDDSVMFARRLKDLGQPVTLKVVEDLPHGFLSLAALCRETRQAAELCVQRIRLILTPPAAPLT
Assay: Indirect NAG assay (extinction increase at 481 nm)
Type: biochemical
Conditions: for Absorption change, Decrease, 550 nm / Absorption change, Increase, 481 nm / Increase in the absorption at 481 nm: NAG 0.05 mg/ml
Experimental: A typical reaction is carried out at 30° C. for 60 min, for example in 1.5 ml Eppendorf vessels or 96-hole plates. […] 180 μl of the substrate solution (20 μg/ml of phosphatidylcholine, 10 μg/ml of phosphatidylinositol, 50 μg/ml of NAG in assay buffer) are added. After a preincubation for 15 min at 30° C., 20 μl of HSL in assay buffer are pipetted in and the extinction is immediately measured (see above) at 481 nm in a cuvette photometer (0.5 ml cuvette) or microtiter plate reader. After a certain incubation time, which is variable and depends on the chosen enzyme concentration and can be between 2 and 240 minutes, in this case incubation at 30° C. for 60 min, the extinction is measured again. The increase in the extinction in the yellow region, in this case at 481 nm, is a measure of the enzyme activity.
Isolated rat fat cells are obtained from epididymal fatty tissue from untreated male rats (Wistar, 220-250 g) by collagenase treatment according to published processes. The fat cells from 10 rats are washed three times by flotation with 50 ml each of homogenization buffer ([…], pH 7.4, 0.25 M sucrose, 1 mM ethylenediamine-N,N,N′,N′-tetraacetic acid (EDTA), 1 mM dithiothreitol (DTT), 10 μg/ml of leupeptin, 10 μg/ml of antipain, 20 μg/ml of pepstatin) and finally taken up in 10 ml of homogenization buffer. The fat cells are homogenized in a Teflon-in-glass homogenizer (Braun-Melsungen) by 10 strokes at 1500 rpm and 15° C. The homogenizate is centrifuged (Sorvall SM24 tubes, 5000 rpm, 10 min, 4° C.). The […] between the overlying fatty layer and the pellet is removed and the centrifugation is repeated. The […] resulting from this is centrifuged again (Sorvall SM24 tubes, 20,000 rpm, 45 min, 4° C.). […] After incubation for 60 min at 4° C. (shake at intervals of 15 min), the batch is centrifuged (Sorvall SM24 tubes, 3000 rpm, 10 min, 4° C.). The supernatant is brought to pH 5.2 by addition of glacial acetic acid and incubated at 4° C. for 30 min. […] The suspension is dialyzed overnight at 4° C. against 25 mM TRIS/HCl, pH 7.4, 50% glycerol, 1 mM DTT, and 10 μg/ml of leupeptin, pepstatin, and antipain and then applied to a hydroxylapatite column (0.1 g per 1 ml of suspension, equilibrated with 10 mM potassium phosphate, pH 7.0, 30% glycerol, 1 mM DTT). The column is washed with four volumes of equilibration buffer at a flow rate of 20 to 30 ml/h. The HSL is eluted with a volume of equilibration buffer which contains 0.5 M potassium phosphate, then dialyzed (see above) and concentrated 5 to 10 times by ultrafiltration (Amicon Diaflo PM 10 filter) at 4° C. The partially purified HSL can be stored at −70° C. for 4 to 6 weeks.
6 mg of phosphatidylcholine and 6 mg of phosphatidylinositol are dissolved in 1 ml of chloroform each. 10 mg of NAG are dissolved in 1 ml of chloroform. […] The chloroform (225 μl total volume) is completely removed by overblowing with a stream of N2. The dried substrate can be stored at 4° C. for up to three days. For the preparation of the phospholipid vesicles/micelles having intercalated NAG (on the test day), the dried substrate is taken up in 20 ml of assay buffer (25 mM TRIS/HCl, pH 7.4; 150 mM NaCl) and two ultrasonic treatments with an ultrasonic probe (Branson Sonifier type 11, standard microtip): 1st treatment setting 2, 2×1 min, in between in each case 1 min on ice; 2nd treatment setting 4, 2×1 min, in between in each case 1 min on ice. […] Before use as a substrate (within the next 2 h), the solution is additionally incubated on ice for 15 min.
The assay is carried out at 30° C. for 60 min in 1.5 ml Eppendorf vessels or 96-hole plates.

O=C(CCCCCCCCCCCNc1ccc([N+](=O)[O-])c2nonc12)OCC(O)CO (stereo not drawn) [Compound (3)]
Signal strength (20 μg of protein, 0.05 mg/ml of NAG): 0.6 to 0.7 OD | Absorption change, Decrease, 550 nm (HSL 1 μg, 60 min): 866 ± 94 arb. units | Absorption change, Increase, 481 nm (HSL 1 μg, 60 min): 156 ± 21 arb. units | Absorption change, Decrease, 550 nm (HSL 2 μg, 60 min): 841 ± 78 arb. units | Absorption change, Increase, 481 nm (HSL 2 μg, 60 min): 347 ± 40 arb. units | Increase in the absorption at 481 nm (HSL 5 μg, 1 min): 12 ± 2 arb. units | Increase in the absorption at 481 nm (HSL 5 μg, 2 min): 23 ± 4 arb. units | Increase in the absorption at 481 nm (HSL 5 μg, 5 min): 45 ± 9 arb. units | Increase in the absorption at 481 nm (HSL 5 μg, 10 min): 105 ± 18 arb. units | Increase in the absorption at 481 nm (HSL 5 μg, 15 min): 155 ± 20 arb. units | Increase in the absorption at 481 nm (HSL 5 μg, 20 min): 219 ± 31 arb. units | Increase in the absorption at 481 nm (HSL 5 μg, 30 min): 295 ± 47 arb. units | Increase in the absorption at 481 nm (HSL 5 μg, 45 min): 453 ± 52 arb. units | Absorption change, Decrease, 550 nm (HSL 5 μg, 60 min): 779 ± 82 arb. units | Absorption change, Increase, 481 nm (HSL 5 μg, 60 min): 791 ± 88 arb. units | Increase in the absorption at 481 nm (HSL 5 μg, 60 min): 677 ± 70 arb. units | Increase in the absorption at 481 nm (HSL 5 μg, 75 min): 831 ± 92 arb. units | Increase in the absorption at 481 nm (HSL 5 μg, 90 min): 995 ± 82 arb. units | Increase in the absorption at 481 nm (HSL 5 μg, 120 min): 1455 ± 102 arb. units | Increase in the absorption at 481 nm (HSL 5 μg, 180 min): 1937 ± 121 arb. units | Absorption change, Decrease, 550 nm (HSL 7.5 μg, 60 min): 759 ± 69 arb. units | Absorption change, Increase, 481 nm (HSL 7.5 μg, 60 min): 1066 ± 120 arb. units | Increase in the absorption at 481 nm (HSL 10 μg, 1 min): 19 ± 4 arb. units | Increase in the absorption at 481 nm (HSL 10 μg, 2 min): 51 ± 9 arb. units | Increase in the absorption at 481 nm (HSL 10 μg, 5 min): 102 ± 19 arb. units | Increase in the absorption at 481 nm (HSL 10 μg, 10 min): 185 ± 26 arb. units | Increase in the absorption at 481 nm (HSL 10 μg, 15 min): 288 ± 39 arb. units | Increase in the absorption at 481 nm (HSL 10 μg, 20 min): 395 ± 36 arb. units | Increase in the absorption at 481 nm (HSL 10 μg, 30 min): 517 ± 67 arb. units | Increase in the absorption at 481 nm (HSL 10 μg, 45 min): 830 ± 57 arb. units | Absorption change, Decrease, 550 nm (HSL 10 μg, 60 min): 650 ± 61 arb. units | Absorption change, Increase, 481 nm (HSL 10 μg, 60 min): 1255 ± 141 arb. units | Increase in the absorption at 481 nm (HSL 10 μg, 60 min): 1179 ± 110 arb. units | Increase in the absorption at 481 nm (HSL 10 μg, 75 min): 1487 ± 104 arb. units | Increase in the absorption at 481 nm (HSL 10 μg, 90 min): 1844 ± 130 arb. units | Increase in the absorption at 481 nm (HSL 10 μg, 120 min): 2745 ± 195 arb. units | Increase in the absorption at 481 nm (HSL 10 μg, 180 min): 3521 ± 254 arb. units | Absorption change, Decrease, 550 nm (HSL 15 μg, 60 min): 540 ± 55 arb. units | Absorption change, Increase, 481 nm (HSL 15 μg, 60 min): 2351 ± 205 arb. units | Increase in the absorption at 481 nm (HSL 20 μg, 1 min): 5 ± 7 arb. units | Increase in the absorption at 481 nm (HSL 20 μg, 2 min): 78 ± 12 arb. units | Increase in the absorption at 481 nm (HSL 20 μg, 5 min): 193 ± 36 arb. units | Increase in the absorption at 481 nm (HSL 20 μg, 10 min): 423 ± 62 arb. units | Increase in the absorption at 481 nm (HSL 20 μg, 15 min): 617 ± 70 arb. units | Increase in the absorption at 481 nm (HSL 20 μg, 20 min): 865 ± 93 arb. units | Increase in the absorption at 481 nm (HSL 20 μg, 30 min): 1143 ± 216 arb. units | Increase in the absorption at 481 nm (HSL 20 μg, 45 min): 1877 ± 206 arb. units | Absorption change, Decrease, 550 nm (HSL 20 μg, 60 min): 287 ± 51 arb. units | Absorption change, Increase, 481 nm (HSL 20 μg, 60 min): 2867 ± 199 arb. units | Increase in the absorption at 481 nm (HSL 20 μg, 60 min): 2510 ± 295 arb. units | Increase in the absorption at 481 nm (HSL 20 μg, 75 min): 3067 ± 310 arb. units | Increase in the absorption at 481 nm (HSL 20 μg, 90 min): 3527 ± 188 arb. units | Increase in the absorption at 481 nm (HSL 20 μg, 120 min): 4941 ± 410 arb. units | Increase in the absorption at 481 nm (HSL 20 μg, 180 min): 5712 ± 399 arb. units | Absorption change, Decrease, 550 nm (HSL 25 μg, 60 min): 198 ± 44 arb. units | Absorption change, Increase, 481 nm (HSL 25 μg, 60 min): 3428 ± 270 arb. units | Absorption change, Decrease, 550 nm (HSL 30 μg, 60 min): 115 ± 35 arb. units | Absorption change, Increase, 481 nm (HSL 30 μg, 60 min): 3973 ± 244 arb. units | Increase in the absorption at 481 nm (HSL 40 μg, 1 min): 91 ± 14 arb. units | Increase in the absorption at 481 nm (HSL 40 μg, 2 min): 89 ± 32 arb. units | Increase in the absorption at 481 nm (HSL 40 μg, 5 min): 395 ± 62 arb. units | Increase in the absorption at 481 nm (HSL 40 μg, 10 min): 784 ± 88 arb. units | Increase in the absorption at 481 nm (HSL 40 μg, 15 min): 1060 ± 144 arb. units
